Here are results for eleven compounds from PMC5640562, “Synthesis and anticancer activity of novel quinazolinone-based rhodanines” (Chemistry Central Journal, 2017).

Usually melting point stands for the temperature of the solid-liquid transition.

For the compound `O=C1NC(=S)SC1=Cc1ccc(OCc2nc3ccccc3c(=O)n2-c2ccc(Cl)cc2)cc1` (hydrate or solvate) [Compound 33, 5-{4-[(3-(4-Chlorophenyl)-4-oxo-3,4-dihydroquinazolin-2-yl)methoxy]benzylidene}-2-thioxothiazolidin-4-one], the melting point fell in the range of 121 to 123 °C.
For the compound `O=C1NC(=S)SC1=Cc1ccc(OCc2nc3ccccc3c(=O)n2-c2cccc(Cl)c2)cc1` (hydrate or solvate) [Compound 34, 5-{4-[(3-(3-Chlorophenyl)-4-oxo-3,4-dihydroquinazolin-2-yl)methoxy]benzylidene}-2-thioxothiazolidin-4-one], the melting point is 237 to 239 °C.
`O=C1NC(=S)SC1=Cc1ccc(OCc2nc3ccccc3c(=O)n2-c2ccc(Br)cc2)cc1` (hydrate or solvate) [Compound 35, 5-{4-[(3-(4-Bromophenyl)-4-oxo-3,4-dihydroquinazolin-2-yl)methoxy]benzylidene}-2-thioxothiazolidin-4-one]: the melting point was in the range of 171 to 174 °C.
The compound `O=C1NC(=S)SC1=Cc1ccc(OCc2nc3ccccc3c(=O)n2-c2cccc(Br)c2)cc1` (hydrate or solvate) [Compound 36, 5-{4-[(3-(3-Bromophenyl)-4-oxo-3,4-dihydroquinazolin-2-yl)methoxy]benzylidene}-2-thioxothiazolidin-4-one] displayed a melting point of 252 to 254 °C.
`O=C1NC(=S)SC1=Cc1ccc(OCc2nc3ccccc3c(=O)n2-c2ccc(C(F)(F)F)cc2)cc1` (hydrate or solvate) [Compound 37, 5-{4-[(3-(4-Trifluoromethylphenyl)-4-oxo-3,4-dihydroquinazolin-2-yl)methoxy]benzylidene}-2-thioxothiazolidin-4-one] yielded a melting point of 153 to 155 °C.
Turning to `Cc1ccc(-n2c(COc3ccc(C=C4SC(=S)NC4=O)cc3)nc3ccccc3c2=O)cc1` (hydrate or solvate) [Compound 38, 5-{4-[(3-(4-Methylphenyl)-4-oxo-3,4-dihydroquinazolin-2-yl)methoxy]benzylidene}-2-thioxothiazolidin-4-one], the melting point fell in the range of 148 to 150 °C.
`COc1cc(C=C2SC(=S)NC2=O)ccc1OCc1nc2ccccc2c(=O)n1-c1ccccc1` (hydrate or solvate) [Compound 41, 5-{4-[(3-Phenyl-4-oxo-3,4-dihydroquinazolin-2-yl)methoxy]-3-methoxybenzylidene}-2-thioxothiazolidin-4-one] came in with a melting point of 243 to 246 °C.
Compound `COc1cc(C=C2SC(=S)NC2=O)ccc1OCc1nc2ccccc2c(=O)n1-c1ccc(Cl)cc1` (hydrate or solvate) [Compound 43, 5-{4-[(3-(4-Chlorophenyl)-4-oxo-3,4-dihydroquinazolin-2-yl)methoxy]-3-methoxybenzylidene}-2-thioxothiazolidin-4-one] displayed a melting point of 239 to 241 °C.
In turn, `COc1cc(C=C2SC(=S)NC2=O)ccc1OCc1nc2ccccc2c(=O)n1-c1ccc(Br)cc1` (hydrate or solvate) [Compound 45, 5-{4-[(3-(4-Bromophenyl)-4-oxo-3,4-dihydroquinazolin-2-yl)methoxy]-3-methoxybenzylidene}-2-thioxothiazolidin-4-one] had a melting point of 214 to 217 °C.
For `COc1cc(C=C2SC(=S)NC2=O)ccc1OCc1nc2ccccc2c(=O)n1-c1cccc(Br)c1` (hydrate or solvate) [Compound 46, 5-{4-[(3-(3-Bromophenyl)-4-oxo-3,4-dihydroquinazolin-2-yl)methoxy]-3-methoxybenzylidene}-2-thioxothiazolidin-4-one], the melting point lay within 243 to 245 °C.
Turning to `COc1cc(C=C2SC(=S)NC2=O)ccc1OCc1nc2ccccc2c(=O)n1-c1ccc(C)cc1` (hydrate or solvate) [Compound 48, 5-{4-[(3-(4-Methylphenyl)-4-oxo-3,4-dihydroquinazolin-2-yl)methoxy]-3-methoxybenzylidene}-2-thioxothiazolidin-4-one], the melting point lay within 172 to 175 °C.
